According to article PMC10385868 (Viruses, 2023):
Values after ≈ are worked out from the molar mass of the structure shown. Values joined by “and” are separate entries in the source; they are usually repeats but may differ in a detail not shown here. Identical values can stand only once. Like-named read-outs stand apart in the source and are kept apart here.

Legend:
[1] = rat
[2] = system: A549; settings: African green monkey
[3] = target: CHIKV nsP2 protease (Chikungunya virus, UniProt Q8JUX6); format: biochemical
Sequence of CHIKV nsP2 protease (Q8JUX6 1004-1327 limits assumed): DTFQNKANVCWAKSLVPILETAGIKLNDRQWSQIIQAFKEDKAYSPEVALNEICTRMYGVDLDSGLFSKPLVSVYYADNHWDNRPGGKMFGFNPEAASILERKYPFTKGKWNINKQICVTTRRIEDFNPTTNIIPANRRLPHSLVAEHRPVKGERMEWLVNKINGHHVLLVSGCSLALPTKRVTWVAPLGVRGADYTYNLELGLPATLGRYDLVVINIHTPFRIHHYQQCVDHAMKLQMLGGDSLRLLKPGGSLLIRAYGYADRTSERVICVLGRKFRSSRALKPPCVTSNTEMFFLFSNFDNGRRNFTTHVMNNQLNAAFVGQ

[4] = target: WEEV nsP2 protease (Western equine encephalitis virus, UniProt P13896); format: biochemical
Sequence of WEEV nsP2 protease (P13896 1001-1320 limits assumed): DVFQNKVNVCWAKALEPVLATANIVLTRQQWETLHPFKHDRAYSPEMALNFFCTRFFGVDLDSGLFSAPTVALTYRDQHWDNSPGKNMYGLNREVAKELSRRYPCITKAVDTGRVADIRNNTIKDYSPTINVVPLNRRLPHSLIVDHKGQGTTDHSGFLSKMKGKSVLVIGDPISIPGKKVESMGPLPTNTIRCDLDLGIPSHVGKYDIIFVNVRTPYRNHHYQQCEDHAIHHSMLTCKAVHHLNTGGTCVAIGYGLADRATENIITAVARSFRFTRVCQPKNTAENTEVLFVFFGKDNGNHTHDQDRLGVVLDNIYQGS

[5] = target: T1, VEEV nsP2 protease (Venezuelan equine encephalitis virus, UniProt P27282); assay: biochemical; settings: for kinact/KI: pH 7, read-out: k2/Ki
T1 sequence (P27282 1003-1322 limits assumed): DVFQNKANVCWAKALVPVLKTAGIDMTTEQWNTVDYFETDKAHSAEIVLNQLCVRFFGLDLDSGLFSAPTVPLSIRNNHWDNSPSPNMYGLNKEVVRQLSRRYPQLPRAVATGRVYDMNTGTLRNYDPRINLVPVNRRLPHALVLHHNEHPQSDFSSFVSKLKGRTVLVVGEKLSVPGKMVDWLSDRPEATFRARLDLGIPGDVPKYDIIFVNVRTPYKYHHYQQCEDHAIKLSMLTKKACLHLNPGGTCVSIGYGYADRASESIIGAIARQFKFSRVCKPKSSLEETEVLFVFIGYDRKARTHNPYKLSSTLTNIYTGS

[6] = in vitro; settings: SD, rat, microsomes
[7] = system: VEEV-Trinidad; assay: microbe, parasite or virus in culture; format: cell-based; settings: Venezuelan equine encephalitis virus, A549
[8] = system: EEEV; format: cell-based, eastern equine encephalitis virus
[9] = system: VEEV Trinidad; format: cell-based, Venezuelan equine encephalitis virus
[10] = system: CHIKV; format: cell-based, Chikungunya virus
[11] = physchem
[12] = in vitro; settings: African green monkey
[13] = in vitro; settings: PAMPA
[14] = system: WEEV; format: cell-based, Western equine encephalitis virus
[15] = system: VEEV; format: cell-based, Venezuelan equine encephalitis virus
[16] = system: VEEV-Trd; assay: microbe, parasite or virus in culture; format: cell-based, Venezuelan equine encephalitis virus
[17] = target: T1, VEEV nsP2 protease; format: biochemical

Compound	PAMPA [×10⁻⁶ cm/s]	Ki [5]	kinact/KI [5] [M⁻¹ s⁻¹]	EC50 [7] [µM]	Average titer [8]	Rat_SD/Microsomes t1/2 ([1]; microsomes) [m]	solubility [11] [µg/mL]	CC50 [12] [µM]	Papp [13] [×10⁻⁶ cm/s]	efficacy in cell-based assays [16]	inhibition in discontinuous assays (SDS-PAGE gels) [17]	further results
CCCNC(=O)[C@H]1O[C@@H]1C(=O)N[C@H](C(=O)N1CCC[C@H]1C(=O)O)[C@@H](C)CC [CA074]	<1	1200 µM and 410 µM and 210 µM and 2000 µM	3.33	–	–	–	–	–	–	–	–	Permeability (PAMPA_Pion_Lipid) (PAMPA): <1 ×10⁻⁶ cm/s; Microsomal Stability t1/2 ([1]; SD): >30 min; Rat_SD/Microsomes t1/2 ([1]; SD): >30 m; CC50 [2]: > 100 µM; inhibition of CHIKV nsP2 protease [3]: inhibited; inhibition of WEEV nsP2 protease [4]: inhibited; enhancement of inhibitor binding by Mg^2+ and Mn^2+ [5]: 3 to 6 fold; k2/Ki ([5]; 50 mm hepes, pH 7): 3.3 ± 3.3 M⁻¹ s⁻¹
CCCNC(=O)[C@H]1O[C@@H]1C(=O)N[C@H](C(=O)N1CCC[C@H]1C(=O)OC)[C@@H](C)CC [CA074me, CA074 methyl ester]	33	1200 ± 500 µM	–	11	3.12 × 10^4 and 3.20 × 10^6 and 3.18 × 10^7 and 4.57 × 10^7	11.1	22 (≈ 55.3 µM)	> 100	33	–	–	half-life [6]: 11.1 min; reduction in PFU [8]: 2 log; reduction in plaque forming units (PFU) [9]: ~ 5 log; reduction in PFU [10]: 2 log; reduction in PFU [14]: 2 log; efficacy in plaque assays [15]: effective; reduction in plaque-forming units (PFU) [15]: ~6 log; viral titer reduction [15]: > 5 logs
CC(C)CCNC(=O)C(CC(C)C)NC(=O)C1OC1C(=O)O (stereo not drawn) [E64c, reference compound]	–	–	–	> 100	–	>30	33 (≈ 105 µM)	> 100	< 1	ineffective	partial inhibition	–
CCOC(=O)[C@H]1O[C@@H]1C(=O)N[C@@H](CC(C)C)C(=O)NCCC(C)C [E64d]	–	40 ± 30 µM	33.3	–	2.28 × 10^8 and 2.27 × 10^8	1.5	24 (≈ 70.1 µM)	–	89	ineffective	complete inhibition	effect on titers [8]: no effect; effect on titers [10]: minor reductions; Average titer [14]: 2.13 × 10^6 and 2.16 × 10^6; effect on titers [14]: no effect; effect on titers [15]: minor reductions; k2 ([5]; pH 7): 0.10 ± 0.06 min⁻¹
